Earlier results on 2 compounds are cited in paper PMC10965793, “Synthesis and biological evaluation of pyridylpiperazine hybrid derivatives as urease inhibitors” (Frontiers in Chemistry, 2024).

Structures are written as SMILES. pIC50: −log10 of the molar value. Read-outs that look alike come from different tables or passages of the source.

This data set relates to urease. To be noted: 2022, cited from earlier work.

A word on the pIC50: it is the IC50 on a negative log10 scale, so that one unit is a factor of ten. In the case of `COc1ccccc1N1CCN(c2ccc(/C=N/NC(N)=O)cc2)CC1` [Piperazine based semicarbazone], where the note is “in Figure 3, ref Moghadam et al.”, the pIC50 was 5.40. On to `NC(=S)N/N=C/c1ccc(Cl)cn1` [Pyridine carbothioamide], for which the pIC50 (in Figure 3, ref Naseer et al.) was 5.97.
